Laboratory results reported in PubChem BioAssay (NCI).
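The compound was tested at five concentrations on cells cultured in 96-well plates, with a 48-hour exposure period. GI50: concentration for 50% inhibition of growth. Definition used: TGI = concentration required for complete inhibition of growth.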

Columns and labels:
Assay in all cases: growth of human tumour cells (NCI), 48 h
[1] = test system: 786-0 renal
[2] = test system: A498 renal
[3] = test system: A549 NSCLC
[4] = test system: ACHN renal
[5] = test system: BT-549 breast
[6] = test system: CAKI-1 renal
[7] = test system: CCRF-CEM leukemia
[8] = test system: COLO 205 colon
[9] = test system: DU-145 prostate
[10] = test system: EKVX NSCLC
[11] = test system: HCC-2998 colon
[12] = test system: HCT-116 colon
[13] = test system: HCT-15 colon
[14] = test system: HOP-62 NSCLC
[15] = test system: HOP-92 NSCLC
[16] = test system: HS 578T breast
[17] = test system: HT29 colon
[18] = test system: IGROV1 ovarian
[19] = test system: K-562 leukemia
[20] = test system: KM12 colon
[21] = test system: LOX IMVI melanoma
[22] = test system: M14 melanoma
[23] = test system: MCF7 breast
[24] = test system: MDA-MB-231 breast
[25] = test system: MDA-MB-435
[26] = test system: MOLT-4 leukemia
[27] = test system: NCI-H226 lung
[28] = test system: NCI-H23 lung
[29] = test system: NCI-H460 lung
[30] = test system: NCI-H522 lung
[31] = test system: NCI/ADR-RES ovarian
[32] = test system: OVCAR-3 ovarian
[33] = test system: OVCAR-4 ovarian
[34] = test system: OVCAR-5 ovarian
[35] = test system: OVCAR-8 ovarian
[36] = test system: PC-3 prostate
[37] = test system: RPMI-8226 leukemia
[38] = test system: RXF 393 renal
[39] = test system: SF-268 CNS
[40] = test system: SF-295 CNS
[41] = test system: SF-539 CNS
[42] = test system: SK-MEL-2 melanoma
[43] = test system: SK-MEL-28 melanoma
[44] = test system: SK-MEL-5 melanoma
[45] = test system: SK-OV-3 ovarian
[46] = test system: SN12C renal
[47] = test system: SNB-19 CNS
[48] = test system: SNB-75 CNS
[49] = test system: SW-620 colon
[50] = test system: T-47D breast
[51] = test system: U251 CNS
[52] = test system: UACC-257 melanoma
[53] = test system: UACC-62 melanoma
[54] = test system: UO-31 renal

`c1ccc(N2CCN(CN3CCN(c4ccccc4)C3)C2)cc1` showed a GI50 [1] greater than 100 µM, a TGI [1] greater than 100 µM and a GI50 [2] of 37.2 µM. For the same compound, the TGI [2] was greater than 100 µM, the GI50 [3] was greater than 100 µM and the TGI [3] was greater than 100 µM. The GI50 [4] was 54 µM, the TGI [4] was greater than 100 µM and the GI50 [5] was greater than 100 µM. The TGI [5] was greater than 100 µM, the GI50 [6] was greater than 100 µM and the TGI [6] was greater than 100 µM. For the same compound, the GI50 [7] was 42 µM, the TGI [7] was greater than 100 µM and the GI50 [8] was greater than 100 µM. It also gave a TGI [8] greater than 100 µM, a GI50 [9] greater than 100 µM and a TGI [9] greater than 100 µM. It also gave a GI50 [10] greater than 100 µM, a TGI [10] greater than 100 µM and a GI50 [11] greater than 100 µM. The TGI [11] was greater than 100 µM, the GI50 [12] was 41.9 µM and the TGI [12] was greater than 100 µM. It also gave a GI50 [13] greater than 100 µM, a TGI [13] greater than 100 µM and a GI50 [14] greater than 100 µM. It also gave a TGI [14] greater than 100 µM, a GI50 [15] greater than 100 µM and a TGI [15] greater than 100 µM. The GI50 [16] was greater than 100 µM, the TGI [16] was greater than 100 µM and the GI50 [17] was greater than 100 µM. For the same compound, the TGI [17] was greater than 100 µM, the GI50 [18] was 25.5 µM and the TGI [18] was greater than 100 µM. The GI50 [19] was 3.9 µM, the TGI [19] was greater than 100 µM and the GI50 [20] was greater than 100 µM. For the same compound, the TGI [20] was greater than 100 µM, the GI50 [21] was 66.6 µM and the TGI [21] was greater than 100 µM. It also gave a GI50 [22] greater than 100 µM, a TGI [22] greater than 100 µM and a GI50 [23] greater than 100 µM. The TGI [23] was greater than 100 µM, the GI50 [24] was greater than 100 µM and the TGI [24] was greater than 100 µM. For the same compound, the GI50 [25] was greater than 100 µM, the TGI [25] was greater than 100 µM and the GI50 [26] was 23.8 µM. For the same compound, the TGI [26] was greater than 100 µM, the GI50 [27] was greater than 100 µM and the TGI [27] was greater than 100 µM. It also gave a GI50 [28] greater than 100 µM, a TGI [28] greater than 100 µM and a GI50 [29] greater than 100 µM. It also gave a TGI [29] greater than 100 µM, a GI50 [30] greater than 100 µM and a TGI [30] greater than 100 µM. The GI50 [31] was greater than 100 µM, the TGI [31] was greater than 100 µM and the GI50 [32] was greater than 100 µM. For the same compound, the TGI [32] was greater than 100 µM, the GI50 [33] was greater than 100 µM and the TGI [33] was greater than 100 µM. It also gave a GI50 [34] greater than 100 µM, a TGI [34] greater than 100 µM and a GI50 [35] greater than 100 µM. For the same compound, the TGI [35] was greater than 100 µM, the GI50 [36] was greater than 100 µM and the TGI [36] was greater than 100 µM. It also gave a GI50 [37] of 60.9 µM, a TGI [37] greater than 100 µM and a GI50 [38] greater than 100 µM. It also gave a TGI [38] greater than 100 µM, a GI50 [39] greater than 100 µM and a TGI [39] greater than 100 µM. It also gave a GI50 [40] greater than 100 µM, a TGI [40] greater than 100 µM and a GI50 [41] greater than 100 µM. The TGI [41] was greater than 100 µM, the GI50 [42] was greater than 100 µM and the TGI [42] was greater than 100 µM. The GI50 [43] was greater than 100 µM, the TGI [43] was greater than 100 µM and the GI50 [44] was greater than 100 µM. The TGI [44] was greater than 100 µM, the GI50 [45] was greater than 100 µM and the TGI [45] was greater than 100 µM. The GI50 [46] was greater than 100 µM, the TGI [46] was greater than 100 µM and the GI50 [47] was greater than 100 µM. For the same compound, the TGI [47] was greater than 100 µM, the GI50 [48] was greater than 100 µM and the TGI [48] was greater than 100 µM. The GI50 [49] was 60.7 µM, the TGI [49] was greater than 100 µM and the GI50 [50] was greater than 100 µM. It also gave a TGI [50] greater than 100 µM, a GI50 [51] greater than 100 µM and a TGI [51] greater than 100 µM. The GI50 [52] was greater than 100 µM, the TGI [52] was greater than 100 µM and the GI50 [53] was greater than 100 µM. The TGI [53] was greater than 100 µM, the GI50 [54] was greater than 100 µM and the TGI [54] was greater than 100 µM.
